pEC50: −log10 of the molar value. Read-outs that look alike come from different tables or passages of the source.
What was measured:
[1] = tested on: parental HEK cells; experiment: HEK parental Agonist Counterscreen Assay (non-transfected cells); format: cell-based; conditions: for Averaged Max % Response (±St. Dev.): activity relative to known control
Text: The high control for the agonist counterscreen was Forskolin not acetylcholine.

[2] = target: T1, GPR139 (Homo sapiens, UniProt Q6DWJ6); experiment: GPR139 Agonist titration / agonist counterscreen assay (calcium detection, HEK-GPR139 cells); format: cell-based; set-up: expressed in transfected cells; host or cells: HEK Aequorin cells, Maxcyte transient transfection; conditions: GPR139 Agonist Activity; for Averaged Max % Response (±St. Dev.): activity relative to known control; for pEC50: read-out: EC50
T1 sequence (Q6DWJ6 1-353): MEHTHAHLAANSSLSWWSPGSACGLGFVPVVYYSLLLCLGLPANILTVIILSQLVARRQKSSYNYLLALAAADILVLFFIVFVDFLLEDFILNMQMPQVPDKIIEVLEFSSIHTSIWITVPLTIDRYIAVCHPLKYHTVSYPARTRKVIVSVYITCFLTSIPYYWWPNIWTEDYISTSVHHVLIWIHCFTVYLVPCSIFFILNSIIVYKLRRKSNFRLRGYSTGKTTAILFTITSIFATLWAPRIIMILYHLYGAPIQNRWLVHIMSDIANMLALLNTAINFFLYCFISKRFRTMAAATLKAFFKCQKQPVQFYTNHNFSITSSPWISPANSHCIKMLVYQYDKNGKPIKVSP
Procedure: GPR activity was assessed using a calcium detection assay. […] Negative control samples were treated with DMSO. […] Intracellular calcium was measured using Calcium 5.

[3] = HEK Agonist Activity section of Table 4 (parental HEK counterscreen)
[4] = values printed in E-notation without unit
[5] = Homo sapiens, HEK293, HEK Agonist Activity section of Table 4 (parental HEK counterscreen)
[6] = Homo sapiens, HEK293, HEK Agonist Activity, parental non-transfected HEK cells

| SMILES | Lipophilic Efficiency (logD) ([1]; HEK Agonist Activity section) | Lipophilic Efficiency (logP) ([1]; HEK Agonist Activity section) | pEC50 [1, 3] | Averaged Max % Response (±St. Dev.) ([1]; HEK Agonist Activity section) | Averaged Max % Response (±St. Dev.) [2] | Lipophilic Efficiency (logD) ([2]; based on logD) | Lipophilic Efficiency (logP) ([2]; based on logP) | Hill Slope ([2]; fitted dose-response curve) | Efficiency Ligand ([2]; ligand efficiency) | pEC50 [2, 4] | pEC50 [1, 5] | Efficiency Ligand [2] | Hill Slope [2] | Lipophilic Efficiency (logD) [2] | Lipophilic Efficiency (logP) [2] | pEC50 ([2]; HEK-GPR139 cells) | Lipophilic Efficiency (logD) ([1]; HEK Agonist Activity) | Lipophilic Efficiency (logP) ([1]; HEK Agonist Activity) | Averaged Max % Response (±St. Dev.) ([1]; HEK Agonist Activity) | pEC50 [1, 6] |
| --- | --- | --- | --- | --- | --- | --- | --- | --- | --- | --- | --- | --- | --- | --- | --- | --- | --- | --- | --- | --- |
| Cc1ccc(CCNC(=O)Cn2nc(-c3ccccc3)ccc2=O)cc1 [SR-01000145157] | 1.85 | 1.85 | < 4.85 | 17.61 ± 4.99% | 83.58 ± 17.45% | 3.85 | 3.85 | 0.58 | 0.37 | 6.85 | – | – | – | – | – | – | – | – | – | – |
| Cc1ccccc1CS(=O)(=O)CCC(=O)NC(C)c1ccccc1 (stereo not shown) [SR-01000145393] | 2.34 | 2.34 | – | 10.41 ± 2.89% | 97.82 ± 12.25% | 4.42 | 4.42 | 0.70 | 0.40 | 6.94 | < 4.85 | – | – | – | – | – | – | – | – | – |
| Cc1ccc(CNC(=O)Cn2nc(-c3ccc(C)cc3)ccc2=O)cc1 [SR-01000145456] | 1.62 | 1.62 | – | −11.57 ± 15.53% | 88.21 ± 16.68% | – | – | – | – | – | < 4.85 | 0.32 | 1.42 | 2.66 | 2.66 | 5.89 | – | – | – | – |
| CCCCC(O)CCNC(=O)C1CC(=O)N(CCc2ccc(C)cc2)C1 (stereo not shown) [SR-01000145701] | 4.13 | 2.54 | – | 10.54 ± 1.83% | 114.02 ± 14.51% | – | – | – | – | – | < 4.85 | 0.34 | 0.99 | 5.67 | 4.07 | 6.38 | – | – | – | – |
| COc1ccc(C2=NN(CC(=O)NCCCN(C)c3ccccc3)C(=O)CC2)cc1 [SR-01000145949] | – | – | – | – | 122.18 ± 22.07% | 5.74 | 5.73 | 1.04 | 0.36 | 7.67 | – | – | – | – | – | – | 2.92 | 2.92 | 2.57 ± 15.21% | < 4.85 |
| CN(C)c1ccc(NC(=O)Cn2cc(C=O)c3ccccc32)cc1 [SR-01000146281] | 1.82 | 1.82 | < 4.85 | 8.26 ± 4.28% | 89.20 ± 13.55% | – | – | – | – | – | – | 0.37 | 1.64 | 3.32 | 3.32 | 6.35 | – | – | – | – |
| CC1CCCC(NC(=O)CN2CCCN(Cc3ccc(F)cc3Cl)C2=O)C1C (stereo not shown) [SR-01000146420] | – | – | – | – | 113.46 ± 20.46% | 4.29 | 4.29 | 1.05 | 0.38 | 7.53 | – | – | – | – | – | – | 1.61 | 1.61 | 20.27 ± 3.59% | < 4.85 |
| O=C(CN1CCCN(Cc2ccc(F)cc2Cl)C1=O)NC1CCCCCC1 [SR-01000146442] | – | – | – | – | 108.38 ± 13.78% | 4.80 | 4.80 | 0.79 | 0.41 | 7.83 | – | – | – | – | – | – | 1.82 | 1.82 | −6.48 ± 10.66% | < 4.85 |
| Cc1ccc(CN2CCCN(CC(=O)NC3CCCCCCC3)C2=O)c(Cl)c1 [SR-01000146444] | 1.38 | 1.38 | – | 20.98 ± 2.11% | 112.24 ± 16.06% | 3.54 | 3.54 | 0.93 | 0.35 | – | < 4.85 | – | – | – | – | – | – | – | – | – |
| O=C(CN1CCCN(Cc2ccc(F)cc2Cl)C1=O)NC1CCCC1 [SR-01000146446] | 2.71 | 2.71 | < 4.85 | −2.89 ± 4.65% | 113.08 ± 17.13% | – | – | – | – | – | – | 0.37 | 0.77 | 4.40 | 4.40 | 6.54 | – | – | – | – |
| O=C(CN1CCCN(Cc2ccc(F)cc2Cl)C1=O)NC1CCCCC1 [SR-01000146448] | 2.27 | 2.27 | < 4.85 | 10.11 ± 11.28% | 112.56 ± 16.12% | – | – | – | – | – | – | 0.35 | 0.92 | 3.97 | 3.97 | 6.55 | – | – | – | – |
| O=C(CC1Nc2ccccc2NC1=O)NCC1COc2ccccc2O1 (stereo not shown) [SR-01000146516] | 3.75 | 3.75 | – | −2.96 ± 7.51% | 88.18 ± 13.52% | 5.60 | 5.60 | 0.77 | 0.36 | 6.71 | < 4.85 | – | – | – | – | – | – | – | – | – |
| Cc1ccc(CN2CCN(CC(=O)N3CC(C)CC(C)C3)C2=O)cc1 (stereo not shown) [SR-01000150389] | 2.56 | 2.56 | < 4.85 | 0.25 ± 10.83% | 112.97 ± 21.84% | 4.43 | 4.43 | 0.95 | 0.38 | 6.72 | – | – | – | – | – | – | – | – | – | – |
| CCN(CCCNC(=O)CN1CCC(Cc2ccccc2C)C1=O)c1cccc(C)c1 (stereo not shown) [SR-01000150393] | 1.45 | 1.43 | – | 10.10 ± 9.60% | 97.57 ± 16.88% | 3.55 | 3.54 | 1.18 | 0.31 | – | < 4.85 | – | – | – | – | – | – | – | – | – |
| O=C(CC1CCN(Cc2ccccc2O)C1=O)C1CCC(c2cccc(O)c2)C(O)C1 (stereo not shown) [SR-01000151350] | 1.47 | 1.47 | – | 12.46 ± 7.98% | 101.74 ± 19.26% | – | – | – | – | – | < 4.85 | 0.29 | 1.51 | 3.10 | 3.10 | 6.48 | – | – | – | – |

Source: patent US20250099420A1, “SMALL MOLECULE MODULATORS OF GPR139 COMPLEX” (University of Florida Research Foundation, Incorporated, priority 2022, published 2025)
